1 molecule from patent US6046168A, “Peptide inhibits blood triglyceride level” (Hankyu-Kyoei Bussan Co., Ltd., priority 1993, dated 2000) can be followed below.

The experiment has as its system Healthy albino mice. In words: Serum TG elevation inhibiting action at the time of in vivo lipid loading (olive oil). The settings on record: for Ratio of Increase in Blood TG Levels (%): blood collected 3 hours after. The method, then: Serum TG elevation inhibiting action at the time of in vivo lipid loading was examined on the three peptides of the invention inhibiting elevations of TG levels in blood (i.e., the peptide having the amino acid sequence of SEQ ID NO: 1 and the peptides Val-Thr-Leu and Val-Tyr-Pro synthesized by the method described in Example 4). Healthy albino mice (5-10 weeks old; body weight: about 20-30 g) were used in this experiment. To each mouse, 250 mg of olive oil and an aqueous solution of the above peptide were administered orally. Three hours thereafter, blood was collected under anesthesia with Nembutal. After separation of the blood, the TG level in blood was determined.

Residues, ends and D or L forms follow the SMILES beside them.

Take `CC(C)C[C@H](NC(=O)[C@@H](NC(=O)[C@@H](N)C(C)C)[C@@H](C)O)C(=O)O` [Val--Thr--Leu, H-Val-Thr-Leu-OH] (H-Val-Thr-Leu-OH): the “Ratio of Increase in Blood TG Levels (%)” value (dose 0.1 mg/mouse oral with 250 mg olive oil) was 30%; the “Ratio of Increase in Blood TG Levels (%)” value (dose 0.2 mg/mouse oral with 250 mg olive oil) is on record as 33%; the “Ratio of Increase in Blood TG Levels (%)” value (dose 1.0 mg/mouse oral with 250 mg olive oil) came to 73%; the “Ratio of Increase in Blood TG Levels (%)” value (dose 2.5 mg/mouse oral with 250 mg olive oil) is listed as 76%; the “Ratio of Increase in Blood TG Levels (%)” value (dose 5.0 mg/mouse oral with 250 mg olive oil) came out at 79%. Under “oral, mice loaded with 250 mg olive oil, blood TG after 3 hours”, the “ID50: Dose (mg/mouse) exhibiting 50% inhibition” value is 0.43 mg/mouse. Also, for the setting “relative to the proteolysate (= 1), times”, the “Specific Activity” value amounted to 65.
